# Source: article PMC6061685 (Toxicological Sciences, 2018)
# pEC50: −log10 of the molar value. Entries after “also recorded” stand apart in the source; their conditions may differ. Like-named read-outs stand apart in the source and are kept apart here.
# Experiments:
# ERα [1] = settings: exposure 0–10 µM; ref Charles et al. (2000); cited from earlier work
# AR [2] = settings: exposure 0–10 µM; ref Vinggaard et al. (2000); cited from earlier work
# AR [3] = settings: exposure 0–100 µM; ref Kizu et al. (2003); cited from earlier work
# [4] = molecular target: T1, aryl hydrocarbon receptor (AhR) (Rattus norvegicus, UniProt P41738); experiment: H4IIE AhR CALUX agonist assay; assay type: cell-based
# T1 sequence (P41738 10-853): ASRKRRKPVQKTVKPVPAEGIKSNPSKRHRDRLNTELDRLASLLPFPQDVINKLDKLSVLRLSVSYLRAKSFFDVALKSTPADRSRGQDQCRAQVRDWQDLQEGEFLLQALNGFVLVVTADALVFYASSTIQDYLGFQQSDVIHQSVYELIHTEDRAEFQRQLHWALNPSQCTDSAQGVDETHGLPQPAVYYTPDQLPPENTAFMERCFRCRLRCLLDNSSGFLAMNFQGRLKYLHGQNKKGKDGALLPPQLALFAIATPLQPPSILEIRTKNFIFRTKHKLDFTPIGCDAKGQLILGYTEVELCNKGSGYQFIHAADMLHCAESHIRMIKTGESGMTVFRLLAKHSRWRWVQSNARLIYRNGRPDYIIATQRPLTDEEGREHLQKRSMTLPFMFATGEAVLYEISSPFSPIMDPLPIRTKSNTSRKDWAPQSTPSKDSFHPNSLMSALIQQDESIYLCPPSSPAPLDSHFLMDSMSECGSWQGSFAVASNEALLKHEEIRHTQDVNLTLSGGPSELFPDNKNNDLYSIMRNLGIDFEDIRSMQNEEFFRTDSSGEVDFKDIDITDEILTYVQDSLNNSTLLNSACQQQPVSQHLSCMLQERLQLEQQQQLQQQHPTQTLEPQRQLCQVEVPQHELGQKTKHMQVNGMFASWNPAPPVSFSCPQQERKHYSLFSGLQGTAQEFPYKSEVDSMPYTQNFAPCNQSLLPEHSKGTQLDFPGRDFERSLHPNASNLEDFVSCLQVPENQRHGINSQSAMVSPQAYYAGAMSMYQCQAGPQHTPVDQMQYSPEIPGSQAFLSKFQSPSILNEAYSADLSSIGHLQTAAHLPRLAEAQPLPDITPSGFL
# ERα [5] = settings: 10 mg/kg bw/day; ref Kummer et al. (2008); cited from earlier work
# [6] = molecular target: T2, estrogen receptor alpha (ERα) (Homo sapiens, UniProt P03372); experiment: U2OS ERα CALUX antagonist assay; assay type: cell-based; settings: 24 h exposure; with EC50 concentration of E2 (2.7 × 10^−6 µg/ml)
# T2 sequence (P03372 1-595): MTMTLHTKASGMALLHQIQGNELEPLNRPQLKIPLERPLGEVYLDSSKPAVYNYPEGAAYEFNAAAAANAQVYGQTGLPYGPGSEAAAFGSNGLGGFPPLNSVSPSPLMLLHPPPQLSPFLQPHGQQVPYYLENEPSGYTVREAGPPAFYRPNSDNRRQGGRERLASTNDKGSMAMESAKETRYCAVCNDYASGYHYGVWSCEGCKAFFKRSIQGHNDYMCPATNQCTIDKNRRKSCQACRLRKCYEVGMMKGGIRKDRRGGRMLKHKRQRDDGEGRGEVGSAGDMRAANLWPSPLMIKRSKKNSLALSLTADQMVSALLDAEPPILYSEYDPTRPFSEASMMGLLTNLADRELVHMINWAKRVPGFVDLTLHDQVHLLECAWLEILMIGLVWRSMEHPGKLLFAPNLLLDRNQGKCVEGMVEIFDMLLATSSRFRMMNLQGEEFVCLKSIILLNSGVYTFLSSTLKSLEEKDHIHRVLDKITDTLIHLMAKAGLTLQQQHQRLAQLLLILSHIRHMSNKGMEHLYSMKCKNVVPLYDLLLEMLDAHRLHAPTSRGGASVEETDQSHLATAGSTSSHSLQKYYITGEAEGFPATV
Structure (SMILES),Effects on AR (AR [2]),Effects on AR (AR [3]),other results
Oc1ccc2ccc3c4ccccc4cc4ccc1c2c43 [3OH-BaP],,,"Effects on ERα (ERα [1]): Hydroxy metabolites of BaP, including 3OH-BaP, 9OH-BaP, and 9, 10OH-BaP, act as ERα agonist."
"Cc1c2ccccc2c(C)c2c1ccc1ccccc12 [7, 12-dimethylbenz[a]anthracene]",AR antagonist,,
Oc1ccc2cc3ccc4cccc5ccc(c2c1)c3c45 [9OH-BaP],,,"Effects on ERα (ERα [1]): Hydroxy metabolites of BaP, including 3OH-BaP, 9OH-BaP, and 9, 10OH-BaP, act as ERα agonist."
c1ccc2cc3ccccc3cc2c1 [Anthracene],"AR antagonist; also recorded: Phenanthrene, Anthracene, Pyrene: antagonize the AR activity just at the highest tested concentration",Anthracene and Pyrene show no AR-mediated activity.,
"c1ccc2c(c1)cc1ccc3cccc4ccc2c1c34 [BaP, benzo[a]pyrene, reference compound]",AR antagonist,AR antagonist (except for anthracene and pyrene),pEC50 [4]: 7.91
c1ccc2cc3c(ccc4ccccc43)cc2c1 [Benz[a]anthracene],AR antagonist,,
c1ccc2cc3c(cc2c1)-c1cccc2cccc-3c12 [Benzo[k]fluoranthene],,AR antagonist (except for anthracene and pyrene),Effects on ERα (ERα [5]): Benzo[k]fluoranthene shows no ERα-mediated activity.
c1ccc2c(c1)-c1cccc3cccc-2c13 [Fluoranthene],AR antagonist,,Effects on ERα (ERα [5]): ERα agonist (except for Benzo[k]fluoranthene)
"C[C@]12CC[C@@H]3c4ccc(O)cc4C[C@@H](CCCCCCCCC[S+]([O-])CCCC(F)(F)C(F)(F)F)[C@H]3[C@@H]1CC[C@@H]2O (some centres unmarked) [Fulvestrant, fulvestrant]",,,ERα Antagonist Assay IC25 [6]: 0.011 ng/mL
c1ccc2c(c1)ccc1ccccc12 [Phenanthrene],"AR antagonist; also recorded: Phenanthrene, Anthracene, Pyrene: antagonize the AR activity just at the highest tested concentration",,
c1cc2ccc3cccc4ccc(c1)c2c34 [Pyrene],"AR antagonist; also recorded: Phenanthrene, Anthracene, Pyrene: antagonize the AR activity just at the highest tested concentration",Anthracene and Pyrene show no AR-mediated activity.,
